Reference: BindingDB's records for doi:10.1016/j.ejmech.2012.12.014 (Universitat De Barcelona, 2013)

Experiments:
[1] = molecular target: T1, Glycogen synthase kinase-3 beta (Homo sapiens, UniProt P49841); test: (§1) Inhibition of human recombinant GSK-3beta using GS2 peptide as substrate and [gamma33P]-ATP after 30 mins by scintillation counting
[2] = molecular target: T1, Glycogen synthase kinase-3 beta; test: as §1; remark: listed apart in the source
[3] = molecular target: T2, Cyclin-dependent kinase 5 (Homo sapiens, UniProt Q00535); test: (§2) Inhibition of human recombinant CDK5 using histone H1 as substrate and [gamma33P]-ATP after 20 mins by scintillation counting
[4] = molecular target: T3, Cyclin-dependent kinase 1 (Homo sapiens, UniProt P06493); test: (§3) Inhibition of human recombinant CDK1 using histone H1 as substrate and [gamma33P]-ATP after 15 mins by scintillation counting
[5] = molecular target: T4, Glycogen synthase kinase-3 alpha (Homo sapiens, UniProt P49840); test: (§4) Inhibition of human recombinant GSK-3alpha using GS2 peptide as substrate and [gamma33P]-ATP after 12 mins by scintillation counting
[6] = molecular target: T3, Cyclin-dependent kinase 1; test: as §3; remark: listed apart in the source
[7] = molecular target: T2, Cyclin-dependent kinase 5; test: as §2; remark: listed apart in the source
[8] = molecular target: T4, Glycogen synthase kinase-3 alpha; test: as §4; remark: listed apart in the source

T1 sequence (P49841 whole entry): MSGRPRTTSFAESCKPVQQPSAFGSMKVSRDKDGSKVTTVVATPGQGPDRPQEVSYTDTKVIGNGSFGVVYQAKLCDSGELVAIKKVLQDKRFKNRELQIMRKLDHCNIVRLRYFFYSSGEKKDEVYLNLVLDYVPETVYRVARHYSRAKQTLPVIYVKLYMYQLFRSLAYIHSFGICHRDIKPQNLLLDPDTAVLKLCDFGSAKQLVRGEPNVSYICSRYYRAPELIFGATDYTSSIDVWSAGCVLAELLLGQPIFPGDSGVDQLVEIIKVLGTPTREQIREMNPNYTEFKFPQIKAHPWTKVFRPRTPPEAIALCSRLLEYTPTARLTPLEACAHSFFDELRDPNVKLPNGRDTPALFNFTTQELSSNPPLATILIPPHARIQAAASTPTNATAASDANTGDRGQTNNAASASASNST
T3 sequence (P06493 whole entry): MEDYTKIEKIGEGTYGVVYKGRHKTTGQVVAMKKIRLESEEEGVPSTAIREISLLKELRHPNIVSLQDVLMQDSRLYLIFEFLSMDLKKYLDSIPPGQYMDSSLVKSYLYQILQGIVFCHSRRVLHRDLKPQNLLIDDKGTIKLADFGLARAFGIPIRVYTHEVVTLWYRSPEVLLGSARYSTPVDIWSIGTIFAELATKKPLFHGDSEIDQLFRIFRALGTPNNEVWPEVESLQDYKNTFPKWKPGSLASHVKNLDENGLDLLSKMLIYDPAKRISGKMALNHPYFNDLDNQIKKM
T2 sequence (Q00535 whole entry): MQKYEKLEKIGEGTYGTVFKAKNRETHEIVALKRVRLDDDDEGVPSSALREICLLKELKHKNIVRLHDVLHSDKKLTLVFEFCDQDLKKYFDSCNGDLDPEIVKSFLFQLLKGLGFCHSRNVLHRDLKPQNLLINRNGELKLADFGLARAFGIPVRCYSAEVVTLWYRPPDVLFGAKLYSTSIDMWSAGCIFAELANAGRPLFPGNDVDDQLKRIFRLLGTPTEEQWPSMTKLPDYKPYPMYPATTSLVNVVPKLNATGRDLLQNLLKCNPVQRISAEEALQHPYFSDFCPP
T4 sequence (P49840 whole entry): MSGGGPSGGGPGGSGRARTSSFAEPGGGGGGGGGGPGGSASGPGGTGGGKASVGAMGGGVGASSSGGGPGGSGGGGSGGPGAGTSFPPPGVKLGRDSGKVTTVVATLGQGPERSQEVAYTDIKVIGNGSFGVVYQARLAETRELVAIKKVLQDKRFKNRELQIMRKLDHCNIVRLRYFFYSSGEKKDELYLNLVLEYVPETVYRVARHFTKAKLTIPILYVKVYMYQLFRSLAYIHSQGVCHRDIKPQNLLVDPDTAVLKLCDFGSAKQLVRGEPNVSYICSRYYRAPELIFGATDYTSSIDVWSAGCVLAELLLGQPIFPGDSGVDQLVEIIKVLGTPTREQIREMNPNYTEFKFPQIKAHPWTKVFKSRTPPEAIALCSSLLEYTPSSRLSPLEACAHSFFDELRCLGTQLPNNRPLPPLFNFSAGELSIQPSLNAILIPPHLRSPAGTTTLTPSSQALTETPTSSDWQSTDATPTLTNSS

SMILES: CCCCCCCC(=O)OC[C@H](O)[C@H]1OC(=O)C(O)C1=O (some centres not stated)
- IC50 [1]: > 50 µM
- IC50 [2]: > 50 µM

SMILES: C/C(=C/CC[C@@H](C)C=C1OC(=O)C(C)C1=O)CCCc1coc(Cc2ccoc2)c1 (some centres not stated) [Ircinin 2]
- IC50 [1]: 2.34 µM
- IC50 [2]: 2.34 µM

SMILES: C/C(=C\C=C\C(C)CC/C=C(\C)C[C@H]1OC(=O)C(C)C1=O)CCCc1ccoc1 (some centres not stated) [PALINURIN]
- IC50 [3]: < 25.1 µM
- IC50 [4]: < 100 µM
- IC50 [5]: 1.62 µM
- IC50 [1]: 1.91 µM
- IC50 [6]: < 100 µM
- IC50 [2]: 1.91 µM
- IC50 [7]: < 25.1 µM
- IC50 [8]: 1.62 µM
